Patent US10743540B2, “3-amino-1,2,4-triazine derivatives and their use for controlling undesired plant growth” (BAYER CROPSCIENCE AKTIENGESELLSCHAFT, priority 2016, dated 2020)

Legend:
Format in all cases: in vivo
STEME: Stellaria media [1] = test: Pre-emergence herbicidal effect; settings: application rate 320 g/ha, scored visually after 3 weeks, 100% = plants have died, 0% = like control plants
Text: (§1) 1. Pre-Emergence Herbicidal Effect and Crop Plant Compatibility Seeds of monocotyledonous and dicotyledonous weed plants and crop plants are laid out in sandy loam soil in wood-fiber pots and covered with soil. The compounds of the invention, formulated in the form of wettable powders (WP) or as emulsion concentrates (EC), are then applied to the surface of the covering soil as aqueous suspension or emulsion at a water application rate equating to 600 to 800 L/ha with addition of 0.2% wetting agent. After the treatment, the pots are placed in a greenhouse and kept under good growth conditions for the trial plants. The damage to the test plants is scored visually after a test period of 3 weeks by comparison with untreated controls (herbicidal activity in percent (%): 100% activity=the plants have died, 0% activity=like control plants). [table]

VERPE: Veronica persica [2] = test: Pre-emergence herbicidal effect; settings: application rate 320 g/ha, scored visually after 3 weeks, 100% = plants have died, 0% = like control plants
Text: as §1

[3] = test system: MATIN: Matricaria inodora; test: Pre-emergence herbicidal effect; settings: application rate 320 g/ha, scored visually after 3 weeks, 100% = plants have died, 0% = like control plants
Text: as §1

STEME: Stellaria media [4] = test: Post-emergence herbicidal effect; settings: application rate 320 g/ha, treated at one-leaf stage, assessed visually after about 3 weeks, 100% = plants have died
Description: (§2) [table] 2. Post-Emergence Herbicidal Effect and Crop Plant Compatibility Seeds of monocotyledonous and dicotyledonous weed and crop plants are laid out in sandy loam soil in wood-fiber pots, covered with soil and cultivated in a greenhouse under good growth conditions. 2 to 3 weeks after sowing, the test plants are treated at the one-leaf stage. The compounds of the invention, formulated in the form of wettable powders (WP) or as emulsion concentrates (EC), are then sprayed onto the green parts of the plants as aqueous suspension or emulsion at a water application rate equating to 600 to 800 L/ha with addition of 0.2% wetting agent. After the test plants have been left to stand in the greenhouse under optimal growth conditions for about 3 weeks, the action of the preparations is assessed visually in comparison to untreated controls (herbicidal action in percent (%): 100% activity=the plants have died, 0% activity=like control plants).

VERPE: Veronica persica [5] = test: Post-emergence herbicidal effect; settings: application rate 320 g/ha, treated at one-leaf stage, assessed visually after about 3 weeks, 100% = plants have died
Description: as §2

[6] = test system: ECHCG: Echinochloa crus-galli; test: Pre-emergence herbicidal effect; settings: application rate 320 g/ha, scored visually after 3 weeks, 100% = plants have died, 0% = like control plants
Text: as §1

[7] = test system: POLCO: Polygonum convolvulus; test: Pre-emergence herbicidal effect; settings: application rate 320 g/ha, scored visually after 3 weeks, 100% = plants have died, 0% = like control plants
Text: as §1

VIOTR: Viola tricolor = test: Post-emergence herbicidal effect; settings: application rate 320 g/ha, treated at one-leaf stage, assessed visually after about 3 weeks, 100% = plants have died
Description: as §2

Compound | Herbicidal activity with respect to [%] STEME (STEME: Stellaria media [1]) [%] | Herbicidal activity with respect to [%] VERPE (VERPE: Veronica persica [2]) [%] | Herbicidal activity with respect to [%] MATIN [3] [%] | Herbicidal activity with respect to [%] STEME (STEME: Stellaria media [4]) [%] | Herbicidal activity with respect to [%] VERPE (VERPE: Veronica persica [5]) [%] | Herbicidal activity with respect to [%] ECHCG [6] [%] | Herbicidal activity with respect to [%] POLCO [7] [%] | Herbicidal activity with respect to [%] VIOTR (VIOTR: Viola tricolor) [%]
CC(C)(C)c1nnc(NC2CCOc3ccccc32)nc1N (racemic) [Example 1.8] | 80 | 100 |  |  |  |  |  | 
N#Cc1nnc(NC2CCCc3cc(F)ccc32)nc1N (racemic) [Example 1.63] | 100 |  |  |  |  |  |  | 
Cc1ccc2c(c1)[C@H](Nc1nnc(Cl)c(NC3CC3)n1)[C@@H](C)C2 [Example 1.2] | 100 | 100 | 90 |  |  |  |  | 
CC(=O)c1nnc(N[C@@H]2CCCc3ccccc32)nc1N [Example 1.30] | 100 | 100 | 100 | 80 | 80 | 80 | 100 | 
Cc1ccc2c(c1)[C@H](Nc1nnc(C(=O)NS(=O)(=O)C(F)(F)F)c(N)n1)[C@@H](C)C2 [Example 1.57] | 100 | 100 |  |  | 80 |  |  | 
CNC(=O)c1nnc(NC2CCc3ccccc32)nc1N (racemic) [Example 1.35] |  | 100 |  |  |  |  |  | 
Clc1nnc(NC2CCCc3ccccc32)nc1NC1CC1 (racemic) [Example 1.10] | 80 |  |  |  |  |  |  | 
CC(=O)c1nnc(N[C@@H]2CCc3ccccc32)nc1N [Example 1.29, 1-[5-Amino-3-[(1R)-2,3-dihydro-1H-inden-1-ylamino]-1,2,4-triazin-6-yl]ethanone] | 90 | 90 | 100 | 90 |  |  | 80 | 80
CC(C)(C)c1nnc(N[C@@H]2CCCc3ccccc32)nc1N [Example 1.5] |  | 100 | 90 |  | 80 |  |  | 
Cc1ccc2c(c1)[C@H](Nc1nnc(C(=O)NS(=O)(=O)c3ccc([N+](=O)[O-])cc3)c(N)n1)[C@@H](C)C2 [Example 1.56] | 100 | 100 |  |  |  |  |  | 
Nc1nc(NC2COc3ccccc32)nnc1C(F)(F)F (racemic) [Example 1.48] | 100 | 100 | 100 | 100 | 80 | 100 |  | 
Cc1ccc2c(c1)[C@H](Nc1nnc(C(C)(C)O)c(N)n1)[C@@H](C)C2 [Example 1.105] | 100 | 100 | 100 |  | 80 | 100 | 100 | 90
Cc1ccc2c(c1)[C@@H](Nc1nnc(C#N)c(N)n1)CC2 [Example 1.61] | 80 |  |  |  |  |  |  | 
CS(=O)(=O)c1nnc(NC2c3ccccc3CC2O)nc1N (stereo not shown) [Example 1.87] | 100 | 90 |  |  |  |  |  | 
CCOC(=O)CCNC(=O)c1nnc(N[C@H]2c3cc(C)ccc3C[C@@H]2C)nc1N [Example 1.42] | 100 | 80 |  |  |  |  |  | 
CCOC(=O)c1nnc(N[C@@H]2CCc3ccccc32)nc1N [Example 1.33] | 100 | 100 | 100 |  | 80 | 80 | 100 | 
CCCS(=O)(=O)NC(=O)c1nnc(N[C@H]2c3cc(C)ccc3C[C@@H]2C)nc1N [Example 1.53] | 100 | 100 |  |  | 80 |  |  | 
Cc1ccc2c(c1)[C@H](Nc1nnc(-c3ccc(Cl)cc3)c(N)n1)[C@@H](C)C2 [Example 1.79, 6-(4-Chlorophenyl)-N^3-[(1R,2S)-2,6-dimethyl-2,3-dihydro-1H-inden-1-yl]-1,2,4-triazine-3,5-diamine] | 100 | 100 |  |  |  |  |  | 
Nc1nc(NC2c3ccccc3CC2O)nnc1C(F)(F)F (racemic) [Example 1.84] | 100 | 100 |  |  | 80 |  |  | 90
Clc1nnc(NC2CCOc3ccccc32)nc1NC1CC1 (racemic) [Example 1.14] | 90 |  |  |  |  |  |  | 
C=Cc1nnc(N[C@H]2c3cc(C)ccc3C[C@@H]2C)nc1N [Example 1.80] | 100 | 100 |  |  |  |  |  | 100
Cc1ccc2c(c1)[C@H](Nc1nnc(C(=O)NS(=O)(=O)c3ccccc3)c(N)n1)[C@@H](C)C2 [Example 1.55] | 100 | 90 |  |  | 80 |  |  | 80
N#Cc1nnc(N[C@@H]2CCc3ccccc32)nc1N [Example 1.38] | 100 | 100 |  |  |  | 80 |  | 90
Cc1ccc2c(c1)[C@H](Nc1nnc(C(C)(C)C)c(N)n1)[C@@H](C)C2 [Example 1.6] |  | 100 | 90 |  | 80 |  |  | 80
C=C(c1nnc(N[C@H]2c3cc(C)ccc3C[C@@H]2C)nc1N)C(F)(F)F [Example 1.81] | 100 | 100 | 100 |  |  | 100 | 100 | 80
CC(C)(C)c1nnc(N[C@@H]2CCc3ccccc32)nc1N [Example 1.7] |  | 100 | 90 |  | 90 |  |  | 
CNC(=O)c1nnc(N[C@@H]2CCCc3ccccc32)nc1N [Example 1.34, 5-Amino-N-methyl-3-[(1R)-1,2,3,4-tetrahydronaphthalen-1-ylamino]-1,2,4-triazine-6-carboxamide] |  |  |  |  | 90 |  |  | 
Cc1ccc2c(c1)[C@H](Nc1nnc(C(=O)O)c(N)n1)CC2 [Example 1.75] |  |  |  | 100 |  |  |  | 
CCOC(=O)CNC(=O)c1nnc(N[C@H]2c3cc(C)ccc3C[C@@H]2C)nc1N [Example 1.43] | 100 | 100 | 100 |  | 80 |  |  | 80
